The values below are quoted from earlier work in US10206884B2, “Microcapsules with polymeric coating comprising a lipid and an active agent” (FRESENIUS KABI DEUTSCHLAND GMBH, priority 2013, dated 2019).

For the compound `CCCC(=O)OCC(COC(=O)CCC)OC(=O)CCC` [tributyrin, 1,3-di(butanoyloxy)propan-2-yl butanoate], the solubility in water entry is on record as “only poorly soluble in water”.
